# Data from publication PMC11125159 (Pharmaceutics, 2024).
# Marks after values point to notes of the source that are not given here.
# Assay: Pharmacokinetic assay in rats, plasma LIRA by UPLC-MS/MS
# Type: in vivo
# Settings: male Wistar rats, subcutaneous, single dose 200 µg/kg of LIRA, mean ± SD, n = 6
# From the text: Ultra-performance liquid chromatography (Acquity UPLC© Waters, Milford, MA, USA), coupled with a triple quadrupole mass spectrometer (XEVO-TQD, Waters®) equipped with a Z sprayTM electrospray ionisation source (Waters®, Milford, MA, USA), was employed to detect, and quantify LIRA levels in rat plasma after treatment. An ACQUITY UPLC BEH C18 reversed-phase chromatographic column (50 mm × 2.1 mm; 1.7 µm) was used, with a mobile phase composed of acetonitrile and ultrapure water, both acidified with 0.1% formic acid, eluted in gradient mode, with varying proportions (20/80, 45/55, 60/40, 80/20, 90/10, 80/20, 30/70, 20/80) at specific time intervals (0, 1.5, 2.0, 2.5, 3.0, 3.5, 4.5, 6.0 min), with a flow rate of 0.3 mL/min, injection volume of 2 µL, with a total analysis time of 7.5 min. The samples were maintained at a temperature of 10 °C in the sampler, while the column oven was maintained at 40 °C. Detection by mass spectrometry was carried out in positive electrospray ionisation (ESI+) mode, in multiple reaction monitoring (MRM) mode, with a source temperature of 150 °C, capillary voltage equal to 3.5 kV, desolvation temperature of 600 °C, desolvation flow of 1000 L/h and gas flow in the cone of 50 L/h. […] The transitions set at m/z 938.7 → 1064.1 for LIRA and m/z 1184.7 → 454.4 for insulin detemir. […]
smiles,measurement,value
"CCCCCCCCCCCCCCCC(=O)N[C@@H](CCC(=O)NCCCC[C@H](NC(=O)[C@H](C)NC(=O)[C@H](C)NC(=O)[C@H](CCC(N)=O)NC(=O)CNC(=O)[C@H](CCC(=O)O)NC(=O)[C@H](CC(C)C)NC(=O)[C@H](Cc1ccc(O)cc1)NC(=O)[C@H](CO)NC(=O)[C@H](CO)NC(=O)[C@@H](NC(=O)[C@H](CC(=O)O)NC(=O)[C@H](CO)NC(=O)[C@@H](NC(=O)[C@H](Cc1ccccc1)NC(=O)[C@@H](NC(=O)CNC(=O)[C@H](CCC(=O)O)NC(=O)[C@H](C)NC(=O)[C@@H](N)Cc1cnc[nH]1)[C@@H](C)O)[C@@H](C)O)C(C)C)C(=O)N[C@@H](CCC(=O)O)C(=O)N[C@@H](Cc1ccccc1)C(=O)N[C@H](C(=O)N[C@@H](C)C(=O)N[C@@H](Cc1c[nH]c2ccccc12)C(=O)N[C@@H](CC(C)C)C(=O)N[C@H](C(=O)N[C@@H](CCCNC(=N)N)C(=O)NCC(=O)N[C@@H](CCCNC(=N)N)C(=O)NCC(=O)O)C(C)C)[C@@H](C)CC)C(=O)O [Free LIRA, Liraglutide]",Cl,0.183 ± 0.015 ^b L/h
